Test [1] has as its system Candida albicans. Nature of the test: Antifungal activity against histatin-resistant Candida albicans CAHR04U at 0.2 mg/mL. The test is classed as functional.
In test [2] the test system is Candida albicans. The experiment in a line: Reduction of ATP release in histatin-resistant Candida albicans CAHR04A at 0.2 mg/mL after 45 mins.
For test [3], the system named is Candida albicans. Nature of the test: Antifungal activity against histatin-susceptible Candida albicans CA132A at 0.2 mg/mL. The test is classed as functional.
Test [4] has as its system Candida albicans. The experiment in a line: Reduction of TRK1 gene expression in histatin-resistant Candida albicans CAHR04B. The test is classed as functional.
Test [5] has as its system Candida albicans. The experiment in a line: Antifungal activity against histatin-resistant Candida albicans CAHR04A at 0.2 mg/mL. The test is classed as functional.
The subject of test [6] is Candida albicans. The experiment in a line: Antifungal activity against histatin-resistant Candida albicans CAHR1 at 0.2 mg/mL measured after storage at -80 degC for 1 year. Type of test: functional.
In test [7] the test system is Candida albicans. Nature of the test: Reduction of ATP release in histatin-resistant Candida albicans CAHR04U at 0.2 mg/mL after 45 mins.
The test system of test [8] is Candida albicans. Nature of the test: Reduction of TRK1 gene expression in histatin-resistant Candida albicans CAHR04A. Type of test: functional.
In test [9] the test system is Candida albicans. The experiment in a line: Reduction of ATP release in histatin-resistant Candida albicans CAHR04B at 0.2 mg/mL after 45 mins.
Test [10] concerns Candida albicans. Nature of the test: Antifungal activity against histatin-resistant Candida albicans CAHR4 at 0.2 mg/mL measured after storage at -80 degC for 1 year. Type of test: functional.
The test system of test [11] is Candida albicans. The experiment in a line: Antifungal activity against histatin-resistant Candida albicans CAHR04B at 0.2 mg/mL. Type of test: functional.

Active and inactive are the calls of the source. The calls are words filed in the database; no cut-off is given here.

The source of these data is ChEMBL document CHEMBL1155140, “Differentially expressed proteins in derivatives of Candida albicans displaying a stable histatin 3-resistant phenotype” (2007).

For the compound `CC(C)C[C@H](NC(=O)[C@H](Cc1ccc(O)cc1)NC(=O)[C@H](CC(N)=O)NC(=O)[C@H](CO)NC(=O)[C@H](CCCNC(=N)N)NC(=O)[C@H](Cc1ccc(O)cc1)NC(=O)CNC(=O)[C@H](CCCNC(=N)N)NC(=O)[C@H](Cc1cnc[nH]1)NC(=O)[C@H](CO)NC(=O)[C@H](Cc1cnc[nH]1)NC(=O)[C@H](Cc1cnc[nH]1)NC(=O)[C@H](CCCCN)NC(=O)[C@H](CCC(=O)O)NC(=O)[C@H](Cc1cnc[nH]1)NC(=O)[C@H](Cc1ccccc1)NC(=O)[C@H](CCCCN)NC(=O)[C@H](CCCNC(=N)N)NC(=O)[C@H](CCCCN)NC(=O)[C@H](Cc1ccc(O)cc1)NC(=O)CNC(=O)[C@H](Cc1cnc[nH]1)NC(=O)[C@H](Cc1cnc[nH]1)NC(=O)[C@H](CCCNC(=N)N)NC(=O)[C@H](CCCCN)NC(=O)[C@H](C)NC(=O)[C@H](Cc1cnc[nH]1)NC(=O)[C@H](CO)NC(=O)[C@@H](N)CC(=O)O)C(=O)N[C@@H](Cc1ccc(O)cc1)C(=O)N[C@@H](CC(=O)O)C(=O)N[C@@H](CC(N)=O)C(=O)O` [Histatin 3], the Activity is on record as 17.9% in [1]; 91.7% in [3]; 17.9% in test [5]; 86.4% in [6]; 94.4% in [10]; 17.9% in test [11]. The outcome in [2], in test [7], in [8] and in [9] was Active. Besides, the “fold change (FC)” value is 1.6 in [4] and 2 in test [8].
